Measured values as given in PubChem BioAssay AID256 (DTP/NCI, 2004).
Values joined by “and” are separate entries in the source; they are usually repeats but may differ in a detail not shown here. Equal entries are not always repeated. Inconclusive results and toxic doses are left out. How the source made its calls: active means survival T/C of 150% or more; inactive means T/C below 125% in these data.

Tested on: CD2F1 mice, L1210 leukemia ip, survival T/C
Assay: NCI In Vivo Anticancer Drug Screen. Data for tumor model L1210 Leukemia (intraperitoneal) in CD2F1 (CDF1) mice
Conditions: higher = longer survival
How it was run: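 Each value reflects a quotient of treated over vehicle control outcomes in mice with a transplanted tumor.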

[1] = endpoint: mean survival time, dose: 100.0 mg/kg/injection, schedule: Q04DX003 (ip), vehicle: saline with Tween-80
[2] = endpoint: mean survival time, dose: 200.0 mg/kg/injection, schedule: Q04DX003 (ip), vehicle: saline with Tween-80
[3] = endpoint: mean survival time, dose: 400.0 mg/kg/injection, schedule: Q04DX003 (ip), vehicle: saline with Tween-80

Measured: T/C

OCC1=CCN(CCc2c[nH]c3ccccc23)CC1
inactive: endpoint: mean survival time, dose: 100.0 mg/kg/injection, schedule: Q01DX009 (ip), vehicle: saline with Tween-80 96 % of control | endpoint: mean survival time, dose: 200.0 mg/kg/injection, schedule: Q01DX009 (ip), vehicle: saline with Tween-80 96 % of control

O=S(=O)(O)SCc1ccccc1
inactive: [1] 97 % of control | [2] 92 % of control | [3] 98 % of control

CC[C@@]1(O)C[C@H](OC2CC(N(C)C)C(OC3CC(O)C(OC4CCC(=O)C(C)O4)C(C)O3)C(C)O2)c2c(cc3c(c2O)C(=O)c2c(O)cccc2C3=O)[C@H]1C(=O)OC (stereo not given in full)
inactive: endpoint: mean survival time, dose: 0.12 mg/kg/injection, schedule: Q01DX009 (ip), vehicle: water 97 % of control | endpoint: mean survival time, dose: 0.25 mg/kg/injection, schedule: Q01DX009 (ip), vehicle: water 92 % of control | endpoint: mean survival time, dose: 0.5 mg/kg/injection, schedule: Q01DX009 (ip), vehicle: water 95 % of control | endpoint: mean survival time, dose: 1.0 mg/kg/injection, schedule: Q01DX009 (ip), vehicle: water 90 % of control | endpoint: mean survival time, dose: 2.0 mg/kg/injection, schedule: Q01DX009 (ip), vehicle: water 106 % of control | endpoint: mean survival time, dose: 4.0 mg/kg/injection, schedule: Q01DX009 (ip), vehicle: water 108 % of control | endpoint: mean survival time, dose: 8.0 mg/kg/injection, schedule: Q01DX009 (ip), vehicle: water 86 % of control | endpoint: mean survival time, dose: 50.0 mg/kg/injection, schedule: Q04DX002 (ip), vehicle: saline with Tween-80 87 % of control

Clc1cc2ccccc2c(Cl)n1
inactive: endpoint: mean survival time, dose: 100.0 mg/kg/injection, schedule: Q01DX001 (ip), vehicle: saline with Tween-80 92 % of control | endpoint: mean survival time, dose: 200.0 mg/kg/injection, schedule: Q01DX001 (ip), vehicle: saline with Tween-80 89 % of control

O=C(CCN1CC1)Nc1ccc(NC(=O)CCN2CC2)cc1
inactive: endpoint: mean survival time, dose: 5.0 mg/kg/injection, schedule: Q04DX003 (ip), vehicle: Klucel (hydroxypropylcellulose) (HPC) 106 % of control | endpoint: mean survival time, dose: 80.0 mg/kg/injection, schedule: Q04DX003 (ip), vehicle: Klucel (hydroxypropylcellulose) (HPC) 115 % of control

OCCOc1ccc(Cl)cc1Cl
inactive: endpoint: mean survival time, dose: 75.0 mg/kg/injection, schedule: Q04DX003 (ip), vehicle: saline with Tween-80 98 % of control | endpoint: mean survival time, dose: 150.0 mg/kg/injection, schedule: Q04DX003 (ip), vehicle: saline with Tween-80 97 % of control | endpoint: mean survival time, dose: 300.0 mg/kg/injection, schedule: Q04DX003 (ip), vehicle: saline with Tween-80 98 % of control

Cc1cn(C2CC3OP(=O)(C(C)(C)C#N)OCC3O2)c(=O)[nH]c1=O (stereo not given)
inactive: endpoint: median survival time, dose: 12.5 mg/kg/injection, schedule: Q01DX005 (ip), vehicle: distilled water + Tween-80 101 % of control | endpoint: median survival time, dose: 25.0 mg/kg/injection, schedule: Q01DX005 (ip), vehicle: distilled water + Tween-80 100 % of control | endpoint: median survival time, dose: 50.0 mg/kg/injection, schedule: Q01DX005 (ip), vehicle: distilled water + Tween-80 103 % of control | endpoint: median survival time, dose: 100.0 mg/kg/injection, schedule: Q01DX005 (ip), vehicle: distilled water + Tween-80 100 % of control | endpoint: median survival time, dose: 200.0 mg/kg/injection, schedule: Q01DX005 (ip), vehicle: distilled water + Tween-80 97 % of control

NC(=S)c1ncnc2c1ncn2C1OC(CO)C(O)C1O (stereo not given)
inactive: endpoint: median survival time, dose: 8.75 mg/kg/injection, schedule: Q01DX005 (ip), vehicle: water 103 % of control | endpoint: median survival time, dose: 17.5 mg/kg/injection, schedule: Q01DX005 (ip), vehicle: water 103 % of control and 107 % of control | endpoint: median survival time, dose: 35.0 mg/kg/injection, schedule: Q01DX005 (ip), vehicle: water 120 % of control and 111 % of control | endpoint: median survival time, dose: 70.0 mg/kg/injection, schedule: Q01DX005 (ip), vehicle: water 122 % of control and 124 % of control

O=C(C1CCC2(CCCCC2)CC1)n1ccnc1
inactive: endpoint: mean survival time, dose: 12.5 mg/kg/injection, schedule: Q01DX009 (ip), vehicle: other 95 % of control | endpoint: mean survival time, dose: 25.0 mg/kg/injection, schedule: Q01DX009 (ip), vehicle: other 89 % of control | endpoint: mean survival time, dose: 50.0 mg/kg/injection, schedule: Q01DX009 (ip), vehicle: other 106 % of control | endpoint: mean survival time, dose: 100.0 mg/kg/injection, schedule: Q01DX009 (ip), vehicle: other 93 % of control | endpoint: mean survival time, dose: 200.0 mg/kg/injection, schedule: Q01DX009 (ip), vehicle: other 97 % of control

C#CCOCCCC(=O)O
inactive: endpoint: mean survival time, dose: 100.0 mg/kg/injection, schedule: Q04DX003 (ip), vehicle: acetone 101 % of control | endpoint: mean survival time, dose: 200.0 mg/kg/injection, schedule: Q04DX003 (ip), vehicle: acetone 101 % of control | endpoint: mean survival time, dose: 400.0 mg/kg/injection, schedule: Q04DX003 (ip), vehicle: acetone 95 % of control

Cc1ccc([N+](=O)[O-])cc1NC(=O)COc1ccc(Cl)cc1
inactive: [1] 98 % of control | [2] 94 % of control | [3] 90 % of control
